Source: article PMC3049140, “Mechanism of acetaldehyde-induced deactivation of microbial lipases” (BMC Biochemistry, 2011)

How the values were obtained:
Type in all cases: biochemical
[1] = biological target: T1, BSL-B (Bacillus subtilis lipase B) (Bacillus subtilis, UniProt Q79F14); experiment: residual hydrolytic activity, p-nitrophenylpalmitate assay; details: read-out: residual activity at 50 mM
T1 construct: gene estB
T1 sequence (Q79F14 29-210): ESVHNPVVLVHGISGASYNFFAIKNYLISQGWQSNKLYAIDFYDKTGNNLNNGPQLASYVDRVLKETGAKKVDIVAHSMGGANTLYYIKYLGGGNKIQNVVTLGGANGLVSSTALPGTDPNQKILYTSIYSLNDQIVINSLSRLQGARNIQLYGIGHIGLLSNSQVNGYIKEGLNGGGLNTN

[2] = biological target: T2, BSL-A (Bacillus subtilis lipase A) (Bacillus subtilis, UniProt P37957); experiment: p-nitrophenylpalmitate hydrolysis assay
T2 construct: gene estA
T2 sequence (P37957 32-212): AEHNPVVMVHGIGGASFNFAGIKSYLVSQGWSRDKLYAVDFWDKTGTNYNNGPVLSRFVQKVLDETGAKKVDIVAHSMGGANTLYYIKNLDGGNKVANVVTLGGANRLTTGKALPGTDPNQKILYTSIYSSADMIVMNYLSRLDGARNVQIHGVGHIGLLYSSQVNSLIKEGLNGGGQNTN

[3] = biological target: T1, BSL-B (Bacillus subtilis lipase B); experiment: p-nitrophenylpalmitate hydrolysis assay

Row | SMILES | remaining activity at 50000 µM [1] | p-nitrophenylpalmitate hydrolysis assay [2] | p-nitrophenylpalmitate hydrolysis assay [3]
1 | CC=CC=CC=O [2,4-hexadienal] | 19% | – | –
2 | CCCCCCCCCCCCCCCC(=O)Oc1ccc([N+](=O)[O-])cc1 [pNPP, p-nitrophenylpalmitate] | – | assayed for residual activity using the p-nitrophenylpalmitate assay | residual enzyme activity determined with p-nitrophenylpalmitate as the substrate
